Drawing on PubChem BioAssay AID1963960 (Molecular Pharmacology Branch, DTP, NCI, 2024), this text covers viability, T/C and IC50 for 15 molecules.

The test system of this test is MDA-MB-468 spheroids with HUVEC/MSC, viability. Kind of test: Anticancer human tumor MDA-MB-468 cell line growth inhibition [PI3K].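 For all read-outs here: spheroids exposed to agents for seven days before readout.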 The conditions noted are these: for viability, T/C: stronger effect = lower value. The source says:
Combinatorial screen of targeted agents with the PI3K inhibitors inavolisib, alpelisib, duvelisib, and copanlisib in multi-cell type tumor spheroids
A high-throughput screen of multi-cell type tumor spheroids was designed to identify active combinations of targeted small molecules and PI3K pathway inhibitors. Complex spheroids include a stromal component modeled by human endothelial cells (HUVEC) and fibroblasts modeled by human mesenchymal stem cells (MSCs). The concentration ranges selected for each drug and investigational agent were based upon clinically achievable concentrations if the clinical Cmax of the agent was known.
Compounds. The drugs and investigational agents: inavolisib (NSC800729), alpelisib (NSC765974), duvelisib (NSC772469), copanlisib (NSC816437), ipatasertib (NSC767898), afuresertib (NSC778305), talazoparib (NSC767125), sapanisertib (NSC764658), selumetinib (NSC741078), tovorafenib (DAY101, NSC766906), vemurafenib (NSC761431), ravoxertinib (NSC781343), sotorasib (NSC818433), MRTX1133 (NSC 836407), abemaciclib (NSC 768073), palbociclib (NSC758247), venetoclax (NSC 766270), SY5609 (NSC837396), enzalutamide (NSC755605), and darolutamide (NSC825331), were obtained from the National Cancer Institute (NCI) Developmental Therapeutics Program Chemical Repository. The FDA-approved anticancer drug set is available from the NCI Developmental Therapeutics Program. […] The stock solutions were prepared in dimethyl sulfoxide (DMSO, Sigma-Aldrich, St. Louis, MO, cat. D2650) at 800-fold the tested concentration and stored at -70 degrees C prior to their use. All drugs and investigational agents were tested over a range starting from a high concentration at or near the clinical Cmax and decreasing in half-log increments. If the clinical Cmax for an agent had not been determined, the highest concentration tested was 10 microM.
Cell Culture. All cells were maintained in an incubator at 37 degrees C and 5% CO2 with 95% humidity. The PDC lines were cultured according to standard operating procedures established by the NCI PDMR (https://pdmr.cancer.gov/sops/default.htm). All PDCs were thawed and cultured in Matrigel-coated flasks prepared with a working solution of 1X Ham's F-12 nutrient mix, without supplementation (Invitrogen, Waltham, MA, cat. 11765054), 100 U/mL penicillin-streptomycin (Invitrogen, cat. 15140122), and 2.5% Matrigel (Corning Inc., Corning, NY, cat. 354248) for the first three passages. The 354836-022-R-J1-PDC, 475296-252-R-J1-PDC, and 997726-040-R-J2-PDC lines were cultured in 6A media, which includes advanced DMEM/F-12 (Thermo Fisher Scientific, cat. 12634028), 10 mM HEPES (Thermo Fisher Scientific, cat. 15630080), 1X GlutaMAX supplement (Thermo Fisher Scientific, cat. 35050061), 0.1 mg/mL primocin (InvivoGen, San Diego, CA, cat. ant-pm-2), 10% defined fetal bovine serum, heat inactivated (HyClone Laboratories Inc., Logan, UT, cat. SH30070.03HI), 50% L-WRN conditioned media (ATCC, cat. CRL-3276), 1.25 mM N-Acetyl-L-cysteine (Sigma-Aldrich, cat. A9165), 10 mM nicotinamide (Sigma-Aldrich, cat. N0636), 1X B-27 supplement (Thermo Fisher Scientific, cat. 17504044), 1X N-2 supplement (Thermo Fisher Scientific, cat. 17502048), and 10 microM Y-27632 dihydrochloride (Tocris Bioscience, Bristol, United Kingdom, cat. 1254). The 624824-186-R-J2-PDC line was cultured in 6C/Colon 1B media, which includes all 6A media components plus 50 ng/mL human EGF recombinant protein (Thermo Fisher Scientific, cat. PHG0311). […]

Setting [1] is: compound alone, run of 05/09/2023.

Where “and” joins values, the source holds several entries; their conditions need not be identical. Equal entries are not always repeated.

The term viability, T/C denotes the ratio of treated to control. A word on the IC50: it is the concentration at which inhibition is half-maximal.

Turning to `CC(=O)c1c(C)c2cnc(Nc3ccc(N4CCNCC4)cn3)nc2n(C2CCCC2)c1=O`, the viability, T/C is, setting by setting: (compound 0.000316 µM) 106% [middle of 4 runs]; (compound 0.001 µM) 93.5% [middle of 4 runs]; (compound 0.00316 µM) 110% [middle of 4 runs]; (compound 0.01 µM) 91% [middle of 4 runs]; (compound 0.0316 µM) 99.3% [middle of 4 runs]; (compound 0.1 µM) 97.2% [middle of 4 runs]. For the setting “curve of compound”, the IC50 is more than 0.1 µM.
For `CC(C)NCC(C(=O)N1CCN(c2ncnc3c2C(C)CC3O)CC1)c1ccc(Cl)cc1` (configuration not stated), the viability, T/C (compound 0.0316 µM) is 89.5% [middle of 4 runs]; the viability, T/C (compound 0.1 µM) was 81.3% [middle of 4 runs]; the viability, T/C (compound 1 µM) was 54.2% [middle of 4 runs]; the viability, T/C (compound 3.16 µM) is 32.4% [middle of 4 runs]; the viability, T/C (compound 10 µM) was 26.4% and 22.6% (2×) and 27%. In addition, under “curve of compound”, the IC50 is 1.29 µM [middle of 4 runs].
As for `CC(C)n1nc(-c2ccc3oc(N)nc3c2)c2c(N)ncnc21`, the viability, T/C (compound 0.000316 µM) is 101% [middle of 4 runs]; the viability, T/C (compound 0.00316 µM) was 93% [middle of 4 runs]; the viability, T/C (compound 0.01 µM) is 81.4% [middle of 4 runs]; the viability, T/C (compound 0.0316 µM) is 64.6% [middle of 4 runs]; the viability, T/C (compound 0.1 µM) is 19.3% [middle of 4 runs]. The 50% inhibitory concentration (IC50) (curve of compound) is 44.4 nM [middle of 4 runs].
For `CC(Cn1ccc(-c2ccc(C#N)c(Cl)c2)n1)NC(=O)c1cc(C(C)O)[nH]n1` (configuration not stated), the viability, T/C is 98% [middle of 4 runs] (compound 0.0316 µM); 87.6% [middle of 4 runs] (compound 0.1 µM); 87.2% and 90.1% and 102% (2×) (compound 0.316 µM); 96.8% [middle of 4 runs] (compound 1 µM); 83.8% [middle of 4 runs] (compound 3.16 µM). Moreover, the half-maximal inhibitory concentration (IC50) (curve of compound) was more than 10 µM.
Regarding `CC(Nc1ccc2c(c1)OCCn1cc(N3C(=O)OCC3C(F)F)nc1-2)C(N)=O` (configuration not stated), the viability, T/C reads like this: (compound 0.00316 µM) 96.8% [middle of 8 runs]; (compound 0.01 µM) 88.1% [middle of 8 runs]; (compound 0.0316 µM) 84.2% [middle of 8 runs]; (compound 0.1 µM) 91.4% [middle of 8 runs]; (compound 0.316 µM) 93.4% [middle of 8 runs]; (compound 1 µM) 90.8% [middle of 8 runs]. Under “compound alone, run of 05/08/2023”, the concentration for half-maximal inhibition (IC50) was more than 1 µM.
In the case of `CC(Nc1ncnc2nc[nH]c12)c1cc2cccc(Cl)c2c(=O)n1-c1ccccc1` (configuration not stated), the viability, T/C runs as follows: (compound 0.0316 µM) 94% [middle of 8 runs]; (compound 0.1 µM) 93.1% [middle of 8 runs]; (compound 0.316 µM) 81% [middle of 8 runs]; (compound 1 µM) 71.2% [middle of 8 runs]; (compound 3.16 µM) 55.5% [middle of 8 runs]; (compound 10 µM) 40.7% [middle of 8 runs]. The IC50 under setting [1] was 4.95 µM [middle of 8 runs].
Regarding `CC1(C)CCC(CN2CCN(c3ccc(C(=O)NS(=O)(=O)c4ccc(NCC5CCOCC5)c([N+](=O)[O-])c4)c(Oc4cnc5[nH]ccc5c4)c3)CC2)=C(c2ccc(Cl)cc2)C1`, the viability, T/C by setting is: (compound 0.0316 µM) 92.6% [middle of 4 runs]; (compound 0.1 µM) 88% [middle of 4 runs]; (compound 0.316 µM) 97.9% [middle of 4 runs]; (compound 1 µM) 99.4% [middle of 4 runs]; (compound 3.16 µM) 72.8% [middle of 4 runs].
Consider `CCN1CCN(Cc2ccc(Nc3ncc(F)c(-c4cc(F)c5nc(C)n(C(C)C)c5c4)n3)nc2)CC1`, for which the viability, T/C reads like this: (compound 0.00316 µM) 98.5% and 101% (2×) and 106%; (compound 0.0316 µM) 99.3% [middle of 4 runs]; (compound 0.316 µM) 108% [middle of 4 runs]; (compound 1 µM) 66.1% [middle of 4 runs]. Also, where the note is “curve of compound”, the IC50 is more than 1 µM.
As to `CNC(=O)c1ccc(N2C(=S)N(c3ccc(C#N)c(C(F)(F)F)c3)C(=O)C2(C)C)cc1F`, the viability, T/C (compound 0.0316 µM) is 98% [middle of 4 runs]; the viability, T/C (compound 0.1 µM) is 97% [middle of 4 runs]; the viability, T/C (compound 0.316 µM) is 97% [middle of 4 runs]; the viability, T/C (compound 1 µM) is 102% [middle of 4 runs]; the viability, T/C (compound 3.16 µM) was 93.3% [middle of 4 runs]; the viability, T/C (compound 10 µM) was 72.8% [middle of 4 runs]. Moreover, for the setting “curve of compound”, the half-maximal inhibitory concentration (IC50) is more than 10 µM.
As for `COc1c(OCCCN2CCOCC2)ccc2c3n(c(=NC(=O)c4cnc(N)nc4)nc12)CCN3`, the viability, T/C by setting is: (compound 0.00316 µM) 99.8% [middle of 8 runs]; (compound 0.01 µM) 90.4% [middle of 8 runs]; (compound 0.0316 µM) 76.7% [middle of 8 runs]; (compound 0.1 µM) 57.7% [middle of 8 runs]; (compound 0.316 µM) 23.9% [middle of 8 runs]; (compound 1 µM) 3.27% [middle of 8 runs]. Also, the half-inhibitory concentration (IC50) under setting [1] was 122 nM [middle of 7 runs].
Consider `C[C@@H](NC(=O)c1ncnc(N)c1Cl)c1ncc(C(=O)Nc2cc(C(F)(F)F)c(Cl)cn2)s1`, for which the viability, T/C is, setting by setting: (compound 0.0316 µM) 95.6% [middle of 4 runs]; (compound 0.1 µM) 102% [middle of 4 runs]; (compound 1 µM) 99.1% [middle of 4 runs]. Also, for the setting “curve of compound”, the concentration for half-maximal inhibition (IC50) is more than 10 µM.
In the case of `Cc1nc(NC(=O)N2CCCC2C(N)=O)sc1-c1ccnc(C(C)(C)C(F)(F)F)c1` (configuration not stated), the viability, T/C reads like this: (compound 0.0316 µM) 89% [middle of 8 runs]; (compound 0.1 µM) 83.7% [middle of 8 runs]; (compound 0.316 µM) 81.1% [middle of 8 runs]; (compound 1 µM) 77.9% [middle of 8 runs]; (compound 3.16 µM) 70.2% [middle of 7 runs]; (compound 10 µM) 44.1% [middle of 8 runs].
In the case of `Cn1cnc2c(F)c(Nc3ccc(Br)cc3Cl)c(C(=O)NOCCO)cc21`, the viability, T/C by setting is: (compound 0.00949 µM) 82.8% [middle of 4 runs]; (compound 0.03 µM) 83.3% [middle of 4 runs]; (compound 0.0949 µM) 86.8% [middle of 4 runs]; (compound 0.3 µM) 87.3% [middle of 4 runs]; (compound 0.949 µM) 88.8% [middle of 4 runs]; (compound 3 µM) 64.7% [middle of 4 runs]. The IC50 (curve of compound) was more than 3 µM.
For the molecule `Cn1nccc1Nc1nccc(-c2ccn(C(CO)c3ccc(Cl)c(F)c3)c(=O)c2)n1` (configuration not stated), the viability, T/C (compound 0.0316 µM) is 92.3% [middle of 4 runs]; the viability, T/C (compound 0.1 µM) is 92.9% [middle of 4 runs]; the viability, T/C (compound 0.316 µM) is 101% [middle of 4 runs]; the viability, T/C (compound 10 µM) was 81.9% [middle of 4 runs]. The IC50 (curve of compound) was more than 10 µM.
As for `Cn1ncnc1[C@H]1c2n[nH]c(=O)c3cc(F)cc(c23)N[C@@H]1c1ccc(F)cc1`, the viability, T/C was 95.9% [middle of 4 runs] (compound 0.000316 µM); 93.9% [middle of 4 runs] (compound 0.001 µM); 85.1% [middle of 4 runs] (compound 0.00316 µM); 82.2% [middle of 4 runs] (compound 0.01 µM); 87.3% [middle of 4 runs] (compound 0.0316 µM); 56.5% [middle of 4 runs] (compound 0.1 µM). Besides, the IC50 (curve of compound) was more than 0.1 µM.
